# Laboratory results: PMC2765124 (Drug and alcohol dependence, 2009)
# “Also recorded” adds a separate entry of the source.
# Legend:
# [1] = test system: acetic acid-induced abdominal stretching in male ICR mice; experiment: acetic acid stretching test; format: in vivo, mouse; conditions: for antinociceptive effect given alone (abdominal stretching): 1 h before acetic acid; for blockade of the antinociceptive effects of Δ9-THC by THCV: THCV 50 mg/kg s.c. with Δ9-THC 3.0 mg/kg s.c.; for effect on abdominal stretching given alone: 3 mg/kg i.p.; for blockade of the antinociceptive effects of Δ9-THC: antagonist 3 mg/kg i.p. 10 min before Δ9-THC 3 mg/kg s.c.
# [2] = molecular target: CB1 receptor (Rattus norvegicus, UniProt P20272); experiment: cannabinoid receptor binding, displacement of [3H]-CP-55,940 from whole brain
# Sequence of CB1 receptor (P20272 whole entry): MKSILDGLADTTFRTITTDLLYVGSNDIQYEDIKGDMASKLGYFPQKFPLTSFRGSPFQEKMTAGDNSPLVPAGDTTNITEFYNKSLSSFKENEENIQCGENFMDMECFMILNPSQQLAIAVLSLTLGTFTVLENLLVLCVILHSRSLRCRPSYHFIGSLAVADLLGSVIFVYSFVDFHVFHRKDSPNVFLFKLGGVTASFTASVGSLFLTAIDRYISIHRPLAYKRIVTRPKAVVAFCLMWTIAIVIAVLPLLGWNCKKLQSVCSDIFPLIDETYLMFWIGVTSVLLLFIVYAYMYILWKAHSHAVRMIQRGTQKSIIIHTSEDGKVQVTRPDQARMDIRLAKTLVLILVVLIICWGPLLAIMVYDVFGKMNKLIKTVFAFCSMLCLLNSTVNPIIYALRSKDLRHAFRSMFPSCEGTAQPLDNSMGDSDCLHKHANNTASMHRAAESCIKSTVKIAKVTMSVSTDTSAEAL
# [3] = test system: locomotor activity of male ICR mice; experiment: spontaneous locomotor activity; format: in vivo, mouse; conditions: for % Time Immobile / Total Distance Traveled: 60 min before, 20 min, mean ± SEM
compound,measurement,setting,value
"CCCCCc1cc(O)c2c(c1)OC(C)(CCC=C(C)C)C=C2 (centres unmarked) [CBC, cannabichromene]",antinociceptive effect given alone (abdominal stretching),"[1]; high doses, s.c.",did not produce antinociceptive effects
"C=C(C)[C@@H]1CCC(C)=C[C@H]1c1c(O)cc(CCCCC)cc1O [CBD, cannabidiol]",antinociceptive effect given alone (abdominal stretching),"[1]; high doses, s.c.",did not produce antinociceptive effects
"CCCCCc1cc(O)c2c(c1)OC(C)(C)c1ccc(C)cc1-2 [CBN, cannabinol]","affinity at the CB1 receptor, fold lower than the affinity of Δ9-THC",[2],2–3 fold
same,effect on locomotor activity,"[3]; 50 mg/kg s.c., 60 min before recording",failed to inhibit locomotor activity; also recorded: did not affect mobility
same,% Time Immobile,[3]; 50.0 mg/kg s.c.,17.6 ± 2.9%
same,Total Distance Traveled,[3]; 50.0 mg/kg s.c.,39.02 ± 7.75 m
same,antinociceptive effect given alone (abdominal stretching),[1]; 20 mg/kg s.c.,not at 20 mg/kg
same,antinociceptive effect given alone (abdominal stretching),[1]; 50 mg/kg s.c.,significant antinociceptive effects; also recorded: significantly suppressed the stretching response
same,minimal (required) dose that produced antinociception,[1]; s.c.,50 mg/kg
"CCCc1cc(O)c2c(c1)OC(C)(C)[C@@H]1CC=C(C)C[C@@H]21 [THCV, Δ^8-tetrahydrocannabivarin]",antinociceptive effect given alone (abdominal stretching),[1]; 50 mg/kg s.c.,had no affect on the frequency of stretching behavior; also recorded: failed to elicit antinociceptive effects; also recorded: had no effects on its own
same,blockade of the antinociceptive effects of Δ9-THC by THCV,[1],blocked the antinociceptive effects of Δ^9-THC
same,blockade of the antinociceptive effects of Δ9-THC by THCV,[1]; listed as THC-V,significantly antagonized the antinociceptive effects
Cc1c(C(=O)NN2CCCCC2)nn(-c2ccc(Cl)cc2Cl)c1-c1ccc(Cl)cc1 [rimonabant],effect on abdominal stretching given alone,[1],did not significantly affect abdominal stretching behavior; also recorded: Neither
same,blockade of the antinociceptive effects of CBN,[1]; antagonist 3 mg/kg i.p. 10 min before CBN 50 mg/kg s.c.,blocked by rimonabant; also recorded: significantly blocked the antinociceptive effects
same,blockade of the antinociceptive effects of Δ9-THC,[1],blocked the antinociceptive effects
same,blockade of the antinociceptive effects of Δ9-THC,[1]; listed as Rimonabant,significantly blocked
"CCCCCc1cc(O)c2c(c1)OC(C)(C)[C@@H]1CCC(C)=C[C@@H]21 [Δ^9-THC, Δ^9-tetrahydrocannabinol]",% Time Immobile,[3]; 1.0 mg/kg s.c.,11.2 ± 2.2%
same,Total Distance Traveled,[3]; 1.0 mg/kg s.c.,41.79 ± 2.63 m
same,% Time Immobile,[3]; 3.0 mg/kg s.c.,21.5 ± 5.0%
same,Total Distance Traveled,[3]; 3.0 mg/kg s.c.,43.59 ± 4.70 m
same,effect on locomotor activity,"[3]; 3 mg/kg s.c., 60 min pretreatment, compared to vehicle",did not significantly interfere with locomotor activity
same,% Time Immobile,[3]; 10.0 mg/kg s.c.,37.6 ± 9.2%
same,Total Distance Traveled,[3]; 10.0 mg/kg s.c.,45.86 ± 7.76 m
same,% Time Immobile,[3]; 50.0 mg/kg s.c.,49.0 ± 6.8 %
same,Total Distance Traveled,[3]; 50.0 mg/kg s.c.,35.34 ± 3.61 m
same,effect on mobility,[3]; doses less than 50 mg/kg s.c.,did not impair mobility
same,ED50,"[1]; Mus musculus, read-out: ED50, suppression of abdominal stretching",1.1 mg/kg
same,minimal (required) dose that produced antinociception,[1]; s.c.,1 mg/kg
SR144528,effect on abdominal stretching given alone,[1],did not significantly affect abdominal stretching behavior; also recorded: Neither
